Laboratory results: patent US20230031406A1, “COMPOUNDS AND COMPOSITIONS FOR TREATING CONDITIONS ASSOCIATED WITH NLRP ACTIVITY” (Novartis AG, priority 2018, published 2023)

tested on: PMA-differentiated THP-1 cells; assay: IL-1β production in PMA-differentiated THP-1 cells stimulated with gramicidin (hTHP-1 assay containing 2% fetal bovine serum; Procedures 1 and 2); format: cell-based, human; details: Homo sapiens, THP-1, Table B1; 2% fetal bovine serum; class symbols; read-out: Average IC50 of compounds in hTHP-1 assay: hTHP-1 IC50
Outline: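 PMA 20 ng/ml 16-18 h → trypsinise → 50,000 cells/well, RPMI/2% FBS; cpd 1 h (11-pt, 100–0.0017 μM; DMSO 0.37%); gramicidin 5 μM, 2 h; spin; supernatant IL-1β via HTRF.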

SMILES	IC50
CC(C)c1ncc(F)c(C(C)C)c1NC(=O)N=S(N)(=O)c1cc(C(C)(C)O)cs1 (stereo not drawn) [Compound 148, N′-((5-fluoro-2,4-diisopropylpyridin-3-yl)carbamoyl)-4-(2-hydroxypropan-2-yl)thiophene-2-sulfonimidamide]	0.04 to 0.2 µM
Cn1nc(C(C)(C)O)cc1S(N)(=O)=NC(=O)Nc1c2c(nc3c1CCC3)CCC2 (stereo not drawn) [Compound 166, N′-((1,2,3,5,6,7-hexahydrodicyclopenta[b,e]pyridin-8-yl)carbamoyl)-3-(2-hydroxypropan-2-yl)-1-methyl-1H-pyrazole-5-sulfonimidamide]	5 to 30 µM

same assay, conditions: Homo sapiens, THP-1, Table B1; 2% fetal bovine serum; numeric bounds; read-out: Average IC50 of compounds in hTHP-1 assay: hTHP-1 IC50

SMILES	IC50
Cc1cc(C2CC2)nc(NC(=O)N=S(N)(=O)c2ncc(C(C)(C)O)s2)n1 (stereo not drawn) [Compound 185, N′-((4-cyclopropyl-6-methylpyrimidin-2-yl)carbamoyl)-5-(2-hydroxypropan-2-yl)thiazole-2-sulfonimidamide]	> 30 µM
CC1CCc2c1nc1c(c2NC(=O)N=S(N)(=O)c2ccn(C(C)C)n2)CCC1 (single isomer, unassigned) [Compound 129ab, (S,S) or (S,R)-1-isopropyl-N′-((3-methyl-1,2,3,5,6,7-hexa-hydrodicyclo-penta[b,e]pyridin-8-yl)carbamoyl)-1H-pyrazole-3-sulfonimidamide]	> 30 µM
CC(C)n1ccc(S(N)(=O)=NC(=O)Nc2c3c(nc4c2CCC4)CCC3)n1 (single isomer, unassigned) [Compound 119b, (S) or (R)-N′-((1,2,3,5,6,7-hexahydrodicyclo-penta[b,e]pyridin-8-yl)carbamoyl)-1-isopropyl-1H-pyrazole-3-sulfonimidamide]	> 30 µM

same assay, conditions: Homo sapiens, THP-1, Table B2; 2% fetal bovine serum; class symbols; read-out: hTHP-1 IC50

SMILES	IC50
CCC1CCc2c1nc1c(c2NC(=O)N=S(N)(=O)c2ccn(C(F)F)n2)CCC1 (single isomer, unassigned) [Compound 668c, (R, R) or (R, S) or (S, R) or (S, S)-1-(Difluoromethyl)-N′-((3-ethyl-1,2,3,5,6,7-hexahydrodicyclopenta [b,e]pyridin-8-yl)carbamoyl)-1H-pyrazole-3-sulfonimidamide]	5 to 30 µM
CC(C)(O)c1sc(S(N)(=O)=NC(=O)Nc2c3c(nc4c2CCC42CC2)CCC3)cc1F (stereo not drawn) [Compound 614, 4-Fluoro-5-(2-hydroxypropan-2-yl)-N′-((1′,5′,6′,7′-tetrahydro-2′H-spiro[cyclopropane-1,3′-dicyclopenta[b,e]pyridin]-8′-yl)carbamoyl)thiophene-2-sulfonimidamide]	0.2 to 1 µM
CC(C)(O)c1ccnc(S(N)(=O)=NC(=O)Nc2c3c(nc4c2CCC4(C)C)CCC3)c1 (single isomer, unassigned) [Compound 620b, (R) or (S)-N′-((3,3-dimethyl-1,2,3,5,6,7-hexahydrodicyclopenta [b,e]pyridin-8-yl)carbamoyl)-4-(2-hydroxypropan-2-yl)pyridine-2-sulfonimidamide]	1 to 5 µM
N[S@@](=O)(=NC(=O)Nc1c2c(nc(C3CC3)c1C1CC1)CCC2)c1ccn(C(F)F)n1 [Compound 728b]	0.2 to 1 µM
Cc1c(C2CC2)nc2c(c1NC(=O)N=S(N)(=O)c1cnn3c1OCCC3)CCC2 (stereo not drawn) [Compound 306, N′-((2-cyclopropyl-3-methyl-6,7-dihydro-5H-cyclopenta[b]pyridin-4-yl)carbamoyl)-6,7-dihydro-5H-pyrazolo[5,1-b][1,3]oxazine-3-sulfonimidamide]	5 to 30 µM
C[C@@H]1CCc2c1nc1c(c2NC(=O)N=S(N)(=O)c2ccn(C(C)(F)F)n2)CCC1 (stereo partly drawn) [Compound 723c]	0.2 to 1 µM

same assay, conditions: Homo sapiens, THP-1, Table B2; 2% fetal bovine serum; numeric bounds; read-out: hTHP-1 IC50

SMILES	IC50
Cc1cc(C2CC2)nc(NC(=O)N=S(N)(=O)c2ncc(C(C)(C)O)s2)n1 (stereo not drawn) [Compound 185, N′-((4-cyclopropyl-6-methylpyrimidin-2-yl)carbamoyl)-5-(2-hydroxypropan-2-yl)thiazole-2-sulfonimidamide]	> 30 µM
Cc1c(C2CCC2)nc2c(c1NC(=O)N=S(N)(=O)c1cnc(C(C)(C)O)s1)CCC2 (single isomer, unassigned) [Compound 649b, (S) or (R)-N′-((2-cyclobutyl-3-methyl-6,7-dihydro-5H-cyclopenta[b]pyridin-4-yl)carbamoyl)-2-(2-hydroxypropan-2-yl)thiazole-5-sulfonimidamide]	> 30 µM
CC(C)n1cc(S(N)(=O)=NC(=O)Nc2c3c(nc4c2CCC4(C)C)CCC3)c(CO)n1 (single isomer, unassigned) [Compound 653b, (S) or (R)-N′-((3,3-dimethyl-1,2,3,5,6,7-hexahydrodicyclopenta [b,e]pyridin-8-yl)carbamoyl)-3-(hydroxymethyl)-1-isopropyl-1H-pyrazole-4-sulfonimidamide]	> 30 µM
CC(C)(O)c1cccc(S(N)(=O)=NC(=O)Nc2c3c(nc4c2CCC4)CCC3)c1 (single isomer, unassigned) [Compound 625a, (S) or (R)-N′-((1,2,3,5,6,7-hexahydrodicyclopenta [b,e]pyridin-8-yl)carbamoyl)-3-(2-hydroxypropan-2-yl)benzene-sulfonimidamide]	> 30 µM

same assay, conditions: Homo sapiens, THP-1, Table B3; hTHP-1 assay, 2% fetal bovine serum; class symbols; read-out: IC50

SMILES	IC50
Cc1c(C(F)(F)F)nc2c(c1NC(=O)N=S(N)(=O)c1cnc(C(C)(C)O)s1)CCC2C (single isomer, unassigned) [Example 705, (S, R) or (S, S)-N′-((3,7-dimethyl-2-(trifluoromethyl)-6,7-dihydro-5H-cyclopenta[b]pyridin-4-yl)carbamoyl)-2-(2-hydroxypropan-2-yl)thiazole-5-sulfonimidamide]	5 to 30 µM
Cc1c(C(F)(F)F)nc2c(c1NC(=O)N=[S@@](N)(=O)c1cnc(C(C)(C)O)s1)C(C)CC2 (stereo partly drawn) [Example 575, (R)-N′-((3,5-dimethyl-2-(trifluoromethyl)-6,7-dihydro-5H-cyclopenta[b]pyridin-4-yl)carbamoyl)-2-(2-hydroxypropan-2-yl)thiazole-5-sulfonimidamide]	1 to 5 µM

same assay, conditions: Table B1; 2% fetal bovine serum; class symbols; read-out: Average IC50 of compounds in hTHP-1 assay: hTHP-1 IC50

SMILES	IC50
CC(C)(O)c1ncc(S(N)(=O)=NC(=O)Nc2c3c(nc4c2CCC42CC2)CCC3)s1 (single isomer, unassigned) [Compound 136b, (R) or (S)-2-(2-hydroxy-propan-2-yl)-N′-((1′,5′,6′,7′-tetrahydro-2′H-spiro[cyclopropane-1,3′-dicyclopenta[b,e]pyridin]-8′-yl)carbamoyl)thiazole-5-sulfonimidamide]	0.04 to 0.2 µM
CC1CCc2c1nc1c(c2NC(=O)N=S(N)(=O)c2ccc(CN(C)C)cc2)CCC1 (stereo not drawn) [Compound 134, 4-((dimethylamino)methyl)-N′-((3-methyl-1,2,3,5,6,7-hexahydrodicyclopenta[b,e]pyridin-8-yl)carbamoyl)benzenesulfon-imidamide]	1 to 5 µM
CC1CCc2c1nc1c(c2NC(=O)N=S(N)(=O)c2ccn(C(F)F)n2)CCC1 (single isomer, unassigned) [Compound 184d, (S,R) or (S,S)-1-(difluoro-methyl)-N′-((3-methyl-1,2,3,5,6,7-hexahydro-dicyclopenta[b,e]pyridin-8-yl)carbamoyl)-1H-pyrazole-3-sulfonimidamide]	1 to 5 µM
CC(C)c1ncc(F)c(C(C)C)c1NC(=O)N=S(N)(=O)c1ncc(C(C)(C)O)s1 [Compound 165a, (R)- and (S)-N′-((5-fluoro-2,4-diisopropylpyridin-3-yl)carbamoyl)-5-(2-hydroxypropan-2-yl)thiazole-2-sulfonimidamide]	0.2 to 1 µM
CC1CCc2c1nc1c(c2NC(=O)N=S(N)(=O)c2sc(C(C)(C)O)nc2CO)CCC1 (single isomer, unassigned) [Compound 168aa, (S,S) or (S,R)-4-(hydroxymethyl)-2-(2-hydroxypropan-2-yl)-N′-((3-methyl-1,2,3,5,6,7-hexahydrodicyclo-penta[b,e]pyridin-8-yl)carbamoyl)thiazole-5-sulfonimidamide]	5 to 30 µM

same assay, conditions: Table B2; 2% fetal bovine serum; class symbols; read-out: hTHP-1 IC50

SMILES	IC50
CCn1ccc(S(N)(=O)=NC(=O)Nc2c3c(nc4c2CCC4(C)C)CCC3)n1 (single isomer, unassigned) [Compound 697b, (R) or (S)-N′-((3,3-dimethyl-1,2,3,5,6,7-hexahydrodicyclopenta [b,e]pyridin-8-yl)carbamoyl)-1-ethyl-1H-pyrazole-3-sulfonimidamide]	0.04 to 0.2 µM
CC1(C)CCc2c1nc1c(c2NC(=O)N=S(N)(=O)c2cnc(C(C)(O)CO)s2)CCC1 (single isomer, unassigned) [Compound 201e, (R, R) and (S, R) or (R, S) and (S, S)-2-(1,2-Dihydroxypropan-2-yl)-N′-((3,3-dimethyl-1,2,3.5.6.7-hexahydrodicyclopenta [b,e]pyridin-8-yl)carbamoyl)thiazole-5-sulfonimidamide]	0.04 to 0.2 µM
Cc1c(C(C)C)nc2c(c1NC(=O)N=S(N)(=O)c1cc(C(C)(C)O)cs1)CCC2 (single isomer, unassigned) [Compound 681b, (R) or (S)-4-(2-Hydroxypropan-2-yl)-N′-((2-isopropyl-3-methyl-6,7-dihydro-5H-cyclopenta[b]pyridin-4-yl)carbamoyl) thiophene-2-sulfonimidamide]	0.2 to 1 µM

same assay, conditions: Table B3; hTHP-1 assay, 2% fetal bovine serum; class symbols; read-out: IC50

SMILES	IC50
NS(=O)(=NC(=O)Nc1c2c(nc(C3CC3)c1C1CC1)CCC2)c1ccn(C(F)F)n1 (single isomer, unassigned) [Example 696, (S) or (R)-N′-((2,3-dicyclopropyl-6,7-dihydro-5H-cyclopenta [b]pyridin-4-yl)carbamoyl)-1-(difluoromethyl)-1H-pyrazole-3-sulfonimidamide]	5 to 30 µM

same assay, conditions: Table B4; 2% fetal bovine serum; class symbols; read-out: hTHP-1 IC50

SMILES	IC50
CCn1cc(F)c(S(N)(=O)=NC(=O)Nc2c3c(nc(C(F)(F)F)c2C2CC2)CCC3)n1 (single isomer, unassigned) [Example 774, (S) or (R)-N′-((3-cyclopropyl-2-(trifluoromethyl)-6,7-dihydro-5H-cyclopenta[b]pyridin-4-yl)carbamoyl)-1-ethyl-4-fluoro-1H-pyrazole-3-sulfonimidamide]	5 to 30 µM
